# Laboratory results reported in patent US20050220907A1, “Implanted medical devices with anti-inflammatory coatings” (priority 2004, published 2005).
# Legend:
# [1] = commercially available preparations, oral; cited from earlier work
# [2] = Chondroitin sulfate solubility in oils; format: physicochemical; conditions: in codfish oil, corn oil and olive oil (from the flesh of the olive)
# Source text: Parallel experiments with codfish oil, corn oil and olive oil (from the flesh of the olive) were comtemplated, but chondroitin sulfate solubility in these oils was insufficient to meet the requirements of the experiment.
# [3] = Effect of olive kernel extract on absorption of tritiated chondroitin sulfate in vivo (serum radioactivity after oral capsule); design: species or system male Sprague-Dawley rats; conditions: serum radioactivity at 8 hours
# Procedure: Chondroitin sulfate was tritiated by New England Nuclear Corp. to a specific activity of 4.3 mCi/ml.
# Unlabeled chondroitin sulfate was dissolved in olive kernel extract at a ratio of about 55 w/v chondroitin sulfate powder to about 450 w/v of olive kernel extract (2.9% acidity as oleic acid, 1.03% water, 0.08% hexane). To this solution was added 20.2 microcuries of the labeled chondroitin sulfate. AAA gelatin capsules were filled with the resulting solution using an aluminum template molding device.
# The laboratory animals (250 g male Sprague-Dawley rats) were kept overnight without food but with free access to water. One capsule containg the above-described chondroitin sulfate-olive kernel extract solution was given to each rat per os. Control animals were given the equivalent amount of chondroitin, but without olive kernel extract. The animals were then given free access to food. Serum radioactivity was measured 8 hours thereafter in a beta scintillation counter.
substance,measurement,setting,value
chondroitin sulfate,chondroitin sulfate absorbed orally,[1],less than 5%
same,chondroitin sulfate solubility in oils,[2],insufficient
same,dose of labeled chondroitin sulfate that reached the circulation,"[3]; control rats, one capsule per os without olive kernel extract, n=3",about 3.9%+/−0.4%
same,dose of labeled chondroitin sulfate absorbed into the general circulation,"[3]; rats, one capsule per os of chondroitin sulfate dissolved in olive kernel extract, n=4",about 14.3%+/−0.7%
